Entries after “also recorded” stand apart in the source; their conditions may differ.
How the values were obtained:
C. albicans [1] = test: C. albicans colony forming units (candidacidal activity); type: cell-based
Experimental: C. albicans (1×10^6/ml in HBSS) was incubated in the presence or absence or α-MSH (1-13) or α-MSH (11-13) at concentrations in the range of 10^−15 M to 10^−6 M for 2 hours at 37° C. Cells were then washed in cold distilled water and diluted with HBSS to a concentration of 100 organisms/ml. One-ml aliquots were dispensed on blood agar plates and incubated for 48 hours at 37° C. Organism viability was estimated from the number of colonies formed. In subsequent experiments using familiar procedures we compared activity of α-MSH (4-10), α-MSH (6-13), α-MSH (11-13), ACTH (1-39), (18-39) and fluconazole, the latter an established antifungal agent. Melanocortin peptides and fluconazole were tested in concentrations of 10^−6 M to 10^−4 M. There were at least six replicates for each concentration of peptide.

C. albicans [2] = test: Horse serum-induced germ tube formation of C. albicans; type: cell-based; conditions: 10^−6M, 60 minutes at 37° C.
Experimental: C. albicans from stationary phase cultures were washed twice with distilled water and suspended in HBSS to a final concentration of 2×10^6/ml. Hyphal growth was induced by addition of 10% inactivated horse serum (GIBCO/BRL, Great Britain) to yeast incubated for 45 minutes at 37° C. with continuous shaking. Horse serum was removed by washing cells twice with HBSS and incubation was continued for 60 minutes at 37° C. in the presence of α-MSH (1-13), α-MSH (6-13) or α-MSH (11-13) at a concentration of 10^−6M with continuous shaking. The percentage of filamentous cells was evaluated under a light microscope with the aid of hemocytometer. Experiments were run in triplicate and at least 200 cells were scored. Photomicrographs were taken with an MC100 camera attached to an Axioskop Zeiss microscope.

TNF-α and iNOS mRNA = test: Northern blot of TNF-α and iNOS mRNA in activated microglia; type: cell-based, murine
Experimental: Total cellular RNA was extracted from 10^6 adherent microglial cells plated in six-well tissue culture plates (Corning). Electrophoresis of RNA samples (10 μg/lane) was performed in 1% agarose/2.2 M formaldehyde gels and the gels subsequently blotted onto nylon filters by capillary action and baked for 2 h before prehybridization. The cDNA fragments encoding murine TNF-α and mouse macrophage iNOS were ^32P-labeled using the Ready-To-Go DNA Labeling Kit (Pharmacia, Uppsala, Sweden) before hybridization of nylon filters and autoradiography. Blots were subsequently rehybridized with human glyceraldehyde-3-phosphate dehydrogenase (G-3-PDH) cDNA probe as an internal control (Clontech Laboratories, Inc., Palo Alto, Calif.).

human neutrophils = test: C. albicans killing by human neutrophils; type: cell-based; conditions: 2 hours at 37° C., vs. medium
Experimental: Venous blood (20 ml) from healthy volunteers was anticoagulated with heparin. Neutrophils were isolated using dextran sedimentation and Ficoll-Hypaque (Sigma Chemical Co., St. Louis, Mi., USA) centrifugation. Erythrocytes were lysed via hypotonic shock. Neutrophils represented at least 97% of the cell suspension. Cell viability, estimated by trypan blue exclusion, was >98%. Neutrophils were suspended to a final concentration in HBSS. C. albicans (1×10^6) were opsonized with human AB serum in a shaking water bath for 30 minutes at 37° C. Organisms were then incubated with neutrophils in medium or in medium with α-MSH (1-13) or α-MSH (11-13) in concentrations of 10^−15 M to 10^−4 M in a shaking water bath for 2 hours at 37° C. After incubation, the culture tubes were placed on ice to stop growth and extracellular organisms were washed twice with centrifugation at 1000×g at 4° C. A 2.5% sodium desoxycholoate solution was added to obtain a suspension of 10^6 cells/ml. Two 1/100 serial dilutions in HBSS were made to obtain a final suspension of 100 cells/ml. Aliquots of 1 ml were dispensed on blood agar plates and incubated for 48 hours at 37° C. Colony forming units (CFUs) were counted at the end of the incubation period. Experiments were run in triplicate and repeated using blood from 5 different donors.

[3] = test system: edema caused by intradermal injection of human recombinant IL-1β in the mouse ear; test: Ear edema by intradermal recombinant human IL-1β; type: in vivo, BALB/c mice; conditions: centrally administered peptide, propranolol injected centrally
Experimental: Female BALB/c mice (Simonsen Laboratories, Gilroy, Calif.), 7-8 weeks old, were housed at 23-25° C. in groups not exceeding five animals per cage [28 cm (L)×18 cm (W)×13 cm (H)]. Before the experiments they were acclimatized for not less than 1 week before experimentation to standard lighting and temperature conditions with food and water freely available.
Mice were anesthetized with 10% pentobarbital sodium solution (1 mg/mouse, 50 mg/ml, Nembutal sodium solution; Abbott Laboratories, North Chicago, Ill.). Baseline ear thickness measurements were taken with a spring-loaded micrometer (Swiss Precision Instruments, Los Angeles, Calif.). Ear thickness was expressed in cubic centimeters and was measured at least twice at each time point. The average thickness of unstimulated ears was […]. Inflammation was induced by intradermal injection of 20 μl of recombinant human IL-1β (1500 U; Genzyme, Cambridge, Mass.) in one ear of each mouse using a 28 gauge needle (Hiltz et al., 1992). Measures of ear thickness were repeated 4 and 6 hr later, while the mice were under sodium pentobarbital anesthesia. Edema was assessed by subtracting baseline measures from 4 and 6 hr readings for each animal. α-MSH (11-13) (1663.9 gm/mol; Peninsula Laboratories, Belmont, Calif.) or α-MSH (11-13) (383.48 gm/mol; Peninsula Laboratories) dissolved in saline was injected intracerebroventricularly (20 μl) using procedures described previously (Lipton et al., 1991; Lipton and Catania, 1993).
Several agents were administered at the time of ear challenge to pharmacologically block certain receptors: atropine (Sigma Chemical Co.; 150 μg i.p.), a muscarinic receptor blocker that acts on autonomic end-organ receptors, was chosen because of links between inflammation and modulation of pain and the finding that muscarinic antagonists increase pain threshold (Hartvig et al., 1989); phentolamine (Sigma; 150 μg i.p.) an agent that competes for occupancy of α-adrenergic receptors; propranolol (Sigma; 150 μg, i.p.; 30 μg, i.c.v.), a nonspecific competitive antagonist for β-adrenergic receptors.
Because of the size of the experiments and the requirement for several shipments of animals over time, several experiments were performed, each with complete treatment and control groups drawn from the same shipment of mice. Omnibus analysis of variance techniques (Dynastat, Washington, D.C.) were used to test overall differences among group means. Tukey's protected t test was used to compare individual means. Probability values of <0.05 were considered significant.

Sequence: SYSMEHFRWGKPV [α-MSH (1-13)]
- relative potency in reducing C. albicans viability (C. albicans [1]; 10^−4M melanocortin peptides): the most effective
- effect on C. albicans colony forming units (CFU) (C. albicans [1]; 2 hours at 37° C., vs. control): greatly reduced; also recorded: significantly decreased C. albicans colony forming units; also recorded: inhibitory effect
- reduction in the number of filamentous cells (inhibition of germination) (C. albicans [2]): 28-32%
- mRNA for TNF-α and iNOS (Northern blot) (TNF-α and iNOS mRNA): inhibition of mRNA transaction for TNF-α and iNOS
- killing of C. albicans by human neutrophils (human neutrophils): enhanced the killing
- inhibition of ear edema ([3]; 4 hr): 36%
- inhibition of ear edema ([3]; 6 hr): 32%

Reference: patent US6969590B2, “Use of a polypeptide for treatment of pruritus in animals” (Zengen, Inc., priority 2001, dated 2005)
